Experimental findings from the NIST ThermoML archive (doi:10.1016/j.tca.2019.03.028) are described below.

Molecules are shown by their SMILES. Numbers after ± are expanded uncertainties.

Data set [1] is described as follows: relative permittivity at various frequencies (dimensionless); wn = mass fraction of the nth substance listed. Conditions: 293.15 K, 100 kPa, Liquid, Frequency=0.01 MHz, Coaxial cylinder capacitor.
A short description of data set [2]: relative permittivity at various frequencies (dimensionless). Conditions: 293.15 K; 100 kPa; Liquid; Frequency=0.01 MHz; Coaxial cylinder capacitor.

In the case of `C1CCCCC1` [cyclohexane] + c1ccccc1, the relative permittivity in data set [1] (w1 = 0.25) was 2.2 ± 0.13; in data set [1] (w1 = 0.5) it was 2.13 ± 0.13; in data set [1] (w1 = 0.75), 2.07 ± 0.12; in data set [1] (w1 = 1), 2.02 ± 0.12. Turning to `c1ccccc1` [benzene], in data set [2], the relative permittivity was 2.29 ± 0.13.

With `ClC(Cl)(Cl)Cl` [tetrachloromethane], the relative permittivity in data set [2] was 2.23 ± 0.13. `CC#N` [acetonitrile] + c1ccccc1: the relative permittivity in data set [1] (w1 = 0.25) worked out at 10.21 ± 0.49; in data set [1] (w1 = 0.5) it was 19.8 ± 0.93; in data set [1] (w1 = 0.75), 28.5 ± 1.3; in data set [1] (w1 = 1), 37.7 ± 1.7. Consider `CC#N` [acetonitrile] + ClC(Cl)(Cl)Cl, for which the relative permittivity in data set [1] (w1 = 1) is 37.7 ± 1.7. In the case of `CC#N` [acetonitrile], the relative permittivity in data set [2] was found to be 37.7 ± 1.7. On to `ClC(Cl)(Cl)Cl` [tetrachloromethane] + CC#N, for which the relative permittivity in data set [1] (w2 = 0) was found to be 2.23 ± 0.13; in data set [1] (w2 = 0.25), 14.96 ± 0.71; in data set [1] (w2 = 0.5), 25.7 ± 1.2; in data set [1] (w2 = 0.75), 34.2 ± 1.6. On to `C1CCCCC1` [cyclohexane], for which the relative permittivity in data set [2] is recorded as 2.02 ± 0.12. For the compound `c1ccccc1` [benzene] + CC#N, in data set [1] (w2 = 0), the relative permittivity was 2.29 ± 0.13. For `c1ccccc1` [benzene] + C1CCCCC1, the relative permittivity in data set [1] (w2 = 0) stood at 2.29 ± 0.13.
